Assays:
glioma cells = conditions: Ishiuchi et al., 2002; cited from earlier work
[1] = Tsai and Liang, 2001; cited from earlier work
rat C6 glioma cell line [2] = test: Determination of Ca2+ permeability (Fura-2 AM, glutamate-induced Ca2+ increase); format: cell-based; conditions: 50 μM to 400 μM TMP, 24 hours; 200 μM glutamate for 20 seconds; p<0.05 vs control; FIG. 2
Description: (§1) The rat C6 glioma cell line was purchased from the Food Industry Research and Development Institute, Taiwan. The cell culture within the tubes was transferred into a 15 ml centrifugation tube and centrifuged at 900 rpm for 3 minutes. Resulted supernatant was removed and 4 ml 10% FBS-DMEM was added to the centrifugation tube and sufficiently mixed with the cell pellet. The cells were counted and cultured in a 24-well plate (2×10^4 cells per well) for subsequent in vitro experiments.
(§2) The cultured C6 glioma cells were treated with TMP (Fluka, F-87915) at final concentrations of 50 μM, 100 μM, 200 μM, and 400 μM for 24 hours.
The TMP-treated glioma cells were washed with running buffer for three times, put in a 5 μM Fura-2 AM solution for 30 minutes, and treated with 200 μM glutamate for 20 seconds. The change of Ca^2+ concentration within glioma cells was observed on a fluorescence microscope (IX-70, Olympus, Japan).

rat C6 glioma cell line [3] = test: Determination of cell death by propidium iodide fluorescence (flow cytometry); format: cell-based; conditions: 200 μM and 400 μM TMP, 24 hours; p<0.05 vs control; FIG. 1
Description: as §1, §2
The degree of damage to glioma cells was measured as the intensity of propidium iodide (PI) fluorescence. PI is a fluorescent dye that binds DNA, with an excitation wavelength of 485 nm and an emission wavelength of 620 nm. When a cell is damaged, the permeability of the cell membrane is increased and PI can enter the cell to bind DNA.
The TMP-treated glioma cells were treated with 5 ng/ml PI (Molecular Probes, P-1304) for 1 hour, and then washed with 0.1 M PBS. The intensity of PI fluorescence was read by flow cytometry (FACSort).

neurons = conditions: through protecting mitochondria and inhibiting free radical generation; Shih et al, 2002; cited from earlier work
[4] = tested on: glioma cells implanted in frontal cortex of Sprague-Dawley rats; test: Survival time of rats implanted with glioma cells; format: in vivo, rat; conditions: 0.4 mg subcutaneous twice a day from the 8th day following implantation
Description: (§3) Sprague-Dawley (S.D.) rats obtained from the Animal Center of National Yang-Ming University were kept in the following conditions: 12 hours of artificial lightening per day; 22±2° C. air conditioning; sufficient water and food. Eight-week old female rats, weighing 250 to 300 g, were used in the experiments.
(§4) The rats were anesthetized with chloride hydrate (400 mg/Kg, i.p.) and immobilized on a stereotaxic apparatus (Narishige, Japan). The skin on the head was cut with scissors to expose the skull. Bregma was found as the reference point for the location of microinjection (three-dimensional orientation point: A: 0.7 mm, L; 2.0 mm, H: 2.0 mm). The location was marked with a pen, and the skull at the location was drilled with a drill. Glioma cells (10^6 cells) were injected (2 μl/3 mins; total 10 μl) into the frontal cortex of the left brain of the rats with a microinjector.
(§5) The rats were divided into two groups. […] The rats of the TMP group received TMP treatment (0.4 mg, subcutaneous injection, twice a day) from the 8th day following the implantation. The survival days of rats of the two groups were recorded.

[5] = tested on: glioma cells implanted in frontal cortex of Sprague-Dawley rats; test: Activity of glioma by micro positron emission tomography (18F-FDG); format: in vivo; conditions: 15th day following implantation; one rat; TMP from the 8th day; highly activated tumor still exists in control rat; FIG. 6 D to F
Description: as §3, §4, §5
To determine the activity of glioma cells in the rats, the activity profiles of the tumors were obtained by micro positron emission tomography (micro PET) on the 8th and 15th day following the implantation of glioma cells. […]

rat C6 glioma cell line [6] = test: Determination of cell cycle (PI staining, flow cytometry); format: cell-based; conditions: 400 μM TMP, 24 hours; p<0.05 vs control; FIG. 3
Description: as §1, §2
The TMP-treated glioma cells were treated with trypsin/EDTA (Biochrom AG, L-2153), shaken off, collected in a 15 ml centrifugation tube, and centrifuged at 900 rpm for 3 minutes. The resulting supematant was removed and 1 ml PI solution (50 μg/ml PI, 0.1% sodium citrate, and 0.1% Triton X-100) was added. After one hour of dark incubation at room temperature, the intensity of PI fluorescence was read by flow cytometry (FACSort). In the G2/M phase, DNA has been replicated, and thus the intensity of PI fluorescence of cells in the G2/M phase should be two times of that of cells in the G1 phase.

[7] = Pang et al., 1996; cited from earlier work

C[C@]12N[C@H](Cc3ccccc31)c1ccccc12 [MK801]
proliferation of glioma cells (glioma cells): can effectively inhibit the proliferation of glioma cells

Cc1nc(C)c(C)nc1C [TMP, tetramethylpyrazine]
crossing of the blood-brain barrier [1]: can cross the blood-brain barrier
Ca2+ concentration within glioma cells resulting from treatment with glutamate (rat C6 glioma cell line [2]): effectively reduced Ca^2+ concentration within glioma cells
damage to glioma cells (intensity of PI fluorescence) (rat C6 glioma cell line [3]): resulted in glioma cell death
excitotoxicity to neurons induced by kainite (neurons): can reduce the excitotoxicity to neurons induced by kainite
survival time following implantation, half of the rats of the TMP group ([4]; FIG. 4(B)): 40 days
survival time following implantation, all rats of the TMP group ([4]; control rats died after 15 to 22 days, FIG. 4): at least 22 days
micro PET image of tumor activity [5]: no image of a highly activated tumor
ratio of cells in the G2/M phase (rat C6 glioma cell line [6]): effectively reduced the ratio of cells in the G2/M phase
increase of the concentration of calcium [7]: can inhibit the increase of the concentration of calcium
